The text below walks through data of ChEMBL document CHEMBL2074121, “Human dipeptide transporter, hPEPT1, stably transfected into Chinese hamster ovary cells” (Pharm Res, 1996).

Where a SMILES comes first, the peptide text is derived from it.

For this assay, the target named is T1, Solute carrier family 15 member 1 (Homo sapiens, UniProt P46059).
T1 sequence (P46059 whole entry): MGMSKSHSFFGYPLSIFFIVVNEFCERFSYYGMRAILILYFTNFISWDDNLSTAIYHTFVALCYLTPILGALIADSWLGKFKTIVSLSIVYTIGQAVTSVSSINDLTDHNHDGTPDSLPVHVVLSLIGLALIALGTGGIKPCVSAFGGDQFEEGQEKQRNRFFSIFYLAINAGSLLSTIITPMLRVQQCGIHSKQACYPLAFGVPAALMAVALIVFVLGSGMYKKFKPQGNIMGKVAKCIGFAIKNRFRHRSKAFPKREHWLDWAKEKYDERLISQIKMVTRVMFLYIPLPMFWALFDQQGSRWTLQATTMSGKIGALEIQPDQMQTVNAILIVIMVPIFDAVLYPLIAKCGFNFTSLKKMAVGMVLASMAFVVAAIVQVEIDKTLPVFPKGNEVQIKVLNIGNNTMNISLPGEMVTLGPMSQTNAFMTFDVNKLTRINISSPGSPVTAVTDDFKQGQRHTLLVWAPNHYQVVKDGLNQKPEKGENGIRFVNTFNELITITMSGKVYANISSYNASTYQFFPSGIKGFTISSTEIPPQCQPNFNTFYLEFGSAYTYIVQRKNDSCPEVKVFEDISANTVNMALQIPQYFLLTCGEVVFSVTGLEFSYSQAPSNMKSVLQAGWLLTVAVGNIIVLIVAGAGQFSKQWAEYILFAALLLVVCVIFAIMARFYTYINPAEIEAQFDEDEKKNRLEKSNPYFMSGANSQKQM
Kind of assay: TP_TRANSPORTER: inhibition of Gly-Sar uptake (Gly-Sar: 25000 uM) in PEPT1-expressing CHO cells. Format: functional, cell-based.
For `C[C@H](N)C(=O)N[C@@H](C)C(=O)O` (H-Ala-Ala-OH), the midpoint of inhibition, the IC50, lay at 0.063 mM.

Regarding `NCC(=O)NCC(=O)NCC(=O)O`, 1.4 mM corresponded to half-maximal inhibition (IC50).

For `CC1(C)S[C@@H]2[C@H](NC(=O)[C@H](N)c3ccccc3)C(=O)N2[C@H]1C(=O)O` [AMPICILLIN], half-maximal inhibition (IC50) required 10 mM.
